What follows are compounds tested on KRas G12D-mediated phosphorylation of ERK (assay: Inhibition of KRas G12D-mediated phosphorylation of ERK in AGS cells). Settings: Homo sapiens; AGS cells expressing G12D, 3 hours, phospho-ERK normalized to GAPDH.
Type: cell-based
In short: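 In-cell Western: p-ERK Thr202/Tyr204 signal over GAPDH, as % of DMSO control, with IC50 from a 4-parameter curve. AGS cells seeded 40,000/well for 12-14 h, exposed to compound 3 h at 0.5% DMSO final, then formaldehyde-fixed and methanol-permeabilized.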
With `CC(C)c1ccc(O)cc1-c1ncc2c(N3C[C@H]4CC[C@@H](C3)N4)nc(OCC34CCCN3CCC4)nc2c1F` [Example 403, 3-(4-((1R,5S)-3,8-diazabicyclo[3.2.1]octan-3-yl)-8-fluoro-2-((tetrahydro-1H-pyrrolizin-7a(5H)-yl)methoxy)pyrido[4,3-d]pyrimidin-7-yl)-4-isopropylphenol] the IC50 was 2880 nM.
In the case of `COC1(OC)CN2CCCC2(COc2nc(N3C[C@H]4CC[C@@H](C3)N4)c3cnc(-c4cccc5cccc(Cl)c45)c(F)c3n2)C1` (stereo partly drawn) [Example 404, 4-((1R,5S)-3,8-diazabicyclo[3.2.1]octan-3-yl)-7-(8-chloronaphthalen-1-yl)-2-((2,2-dimethoxytetrahydro-1H-pyrrolizin-7a(5H)-yl)methoxy)-8-fluoropyrido[4,3-d]pyrimidine], the IC50 is reported as 8330 nM.
`CN(C)C(=O)OC[C@H]1CC[C@@]2(COc3nc(N4CC5CCC(C4)N5)c4cnc(-c5cccc6cccc(Cl)c56)c(F)c4n3)CCCN12` [Example 405, (7a-(((4-(3,8-diazabicyclo[3.2.1]octan-3-yl)-7-(8-chloronaphthalen-1-yl)-8-fluoropyrido[4,3-d]pyrimidin-2-yl)oxy)methyl)hexahydro-1H-pyrrolizin-3-yl)methyl dimethylcarbamate] showed an IC50 of 297 nM.
`CNC(=O)OC[C@H]1CC[C@@]2(COc3nc(N4CC5CCC(C4)N5)c4cnc(-c5cccc6cccc(Cl)c56)c(F)c4n3)CCCN12` [Example 408, (7a-(((4-(3,8-diazabicyclo[3.2.1]octan-3-yl)-7-(8-chloronaphthalen-1-yl)-8-fluoropyrido[4,3-d]pyrimidin-2-yl)oxy)methyl)hexahydro-1H-pyrrolizin-3-yl)methyl methylcarbamate] gave an IC50 of 238 nM.
`COC(=O)NC[C@H]1CC[C@@]2(COc3nc(N4CC5CCC(C4)N5)c4cnc(-c5cccc6cccc(Cl)c56)c(F)c4n3)CCCN12` [Example 411, methyl ((7a-(((4-(3,8-diazabicyclo[3.2.1]octan-3-yl)-7-(8-chloronaphthalen-1-yl)-8-fluoropyrido[4,3-d]pyrimidin-2-yl)oxy)methyl)hexahydro-1H-pyrrolizin-3-yl)methyl)carbamate] showed an IC50 of 745 nM.
For `CN(C)C(=O)NC[C@H]1CC[C@@]2(COc3nc(N4CC5CCC(C4)N5)c4cnc(-c5cccc6cccc(Cl)c56)c(F)c4n3)CCCN12` [Example 412, 3-((7a-(((4-(3,8-diazabicyclo[3.2.1]octan-3-yl)-7-(8-chloronaphthalen-1-yl)-8-fluoropyrido[4,3-d]pyrimidin-2-yl)oxy)methyl)hexahydro-1H-pyrrolizin-3-yl)methyl)-1,1-dimethylurea], the IC50 was 4780 nM.
`Fc1c(-c2cccc3cccc(Cl)c23)ncc2c(N3C[C@H]4CC[C@@H](C3)N4)nc(OC[C@]34CCCN3[C@@H](Cn3cccn3)CC4)nc12` [Example 418, 2-((3-((1H-pyrazol-1-yl)methyl)tetrahydro-1H-pyrrolizin-7a(5H)-yl)methoxy)-4-(3,8-diazabicyclo[3.2.1]octan-3-yl)-7-(8-chloronaphthalen-1-yl)-8-fluoropyrido[4,3-d]pyrimidine bis(2,2,2-trifluoroacetate)] showed an IC50 of 2740 nM.
`Fc1c(-c2cccc3cccc(C(F)(F)F)c23)ncc2c(N3C[C@H]4CC[C@@H](C3)N4)nc(OC[C@@]34CCCN3C[C@H](F)C4)nc12` [Example 419, 4-((1R,5S)-3,8-diazabicyclo[3.2.1]octan-3-yl)-8-fluoro-2-(((2R,7aS)-2-fluorotetrahydro-1H-pyrrolizin-7a(5H)-yl)methoxy)-7-(8-(trifluoromethyl)naphthalen-1-yl)pyrido[4,3-d]pyrimidine] gave an IC50 of 2780 nM.
For `CS(=O)(=O)NC[C@H]1CC[C@@]2(COc3nc(N4C[C@H]5CC[C@@H](C4)N5)c4cnc(-c5cccc6cccc(Cl)c56)c(F)c4n3)CCCN12` [Example 420, N-(((3R,7aR)-7a-(((4-((1R,5S)-3,8-diazabicyclo[3.2.1]octan-3-yl)-7-(8-chloronaphthalen-1-yl)-8-fluoropyrido[4,3-d]pyrimidin-2-yl)oxy)methyl)hexahydro-1H-pyrrolizin-3-yl)methyl)methanesulfonamide], the IC50 was 7820 nM.
For `Oc1ccc(CC(F)(F)F)c(-c2ncc3c(N4C[C@H]5CC[C@@H](C4)N5)nc(OC[C@@]45CCCN4C[C@H](F)C5)nc3c2F)c1` [Example 424, 3-(4-((1R,5S)-3,8-diazabicyclo[3.2.1]octan-3-yl)-8-fluoro-2-(((2R,7aS)-2-fluorohexahydro-1H-pyrrolizin-7a-yl)methoxy)pyrido[4,3-d]pyrimidin-7-yl)-4-(2,2,2-trifluoroethyl)phenol], the IC50 was 681 nM.
`Fc1c(-c2cccc3cccc(Cl)c23)ncc2c(N3C[C@H]4CC[C@@H](C3)N4)nc(OCC34CC(F)CN3CC(F)C4)nc12` (stereo partly drawn) [Example 425, 4-((1R,5S)-3,8-diazabicyclo[3.2.1]octan-3-yl)-7-(8-chloronaphthalen-1-yl)-2-((2,6-difluorohexahydro-1H-pyrrolizin-7a-yl)methoxy)-8-fluoropyrido[4,3-d]pyrimidine] was tested, and the IC50 was 5410 nM.
`CCc1c(F)ccc2cccc(-c3ncc4c(N5C[C@H]6CC[C@@H](C5)N6)nc(OCC56CCCN5CCC6)nc4c3F)c12` [Example 426, 4-((1R,5S)-3,8-diazabicyclo[3.2.1]octan-3-yl)-7-(8-ethyl-7-fluoronaphthalen-1-yl)-8-fluoro-2-((hexahydro-1H-pyrrolizin-7a-yl)methoxy)pyrido[4,3-d]pyrimidine] gave an IC50 of 228 nM.
Work on `CCn1ccc2cccc(-c3ncc4c(N5C[C@H]6CC[C@@H](C5)N6)nc(OCC56CCCN5CCC6)nc4c3F)c21` [Example 427, 4-((1R,5S)-3,8-diazabicyclo[3.2.1]octan-3-yl)-7-(1-ethyl-1H-indol-7-yl)-8-fluoro-2-((hexahydro-1H-pyrrolizin-7a-yl)methoxy)pyrido[4,3-d]pyrimidine] yielded an IC50 of 1980 nM.
`Fc1c(-c2cccc3c2CCC3)ncc2c(N3CC4CCC(C3)N4)nc(OC[C@@]34CCCN3C[C@H](F)C4)nc12` [Example 428] gave an IC50 of 6960 nM.
Compound `CC1CCc2cccc(-c3ncc4c(N5CC6CCC(C5)N6)nc(OC[C@@]56CCCN5C[C@H](F)C6)nc4c3F)c21` (stereo partly drawn) [Example 429, 4-(3,8-diazabicyclo[3.2.1]octan-3-yl)-8-fluoro-2-(((2R,7aS)-2-fluorotetrahydro-1H-pyrrolizin-7a(5H)-yl)methoxy)-7-(3-methyl-2,3-dihydro-1H-inden-4-yl)pyrido[4,3-d]pyrimidine] has an IC50 of 1700 nM.
For `Fc1ccc2cccc(-c3ncc4c(N5C[C@H]6CC[C@@H](C5)N6)nc(OC[C@@]56CCCN5C[C@H](F)C6)nc4c3F)c2c1F` [Example 430, 4-((1R,5S)-3,8-diazabicyclo[3.2.1]octan-3-yl)-7-(7,8-difluoronaphthalen-1-yl)-8-fluoro-2-(((2R,7aS)-2-fluorotetrahydro-1H-pyrrolizin-7a(5H)-yl)methoxy)pyrido[4,3-d]pyrimidine], the IC50 was 141 nM.
With `CCc1cccc2cc(O)cc(-c3ncc4c(N5C[C@H]6CC[C@@H](C5)N6)nc(OC[C@]56CCCN5[C@@H](COC(=O)NC)CC6)nc4c3F)c12` [Example 433, ((3R,7aR)-7a-(((4-((1R,5S)-3,8-diazabicyclo[3.2.1]octan-3-yl)-7-(8-ethyl-3-hydroxynaphthalen-1-yl)-8-fluoropyrido[4,3-d]pyrimidin-2-yl)oxy)methyl)hexahydro-1H-pyrrolizin-3-yl)methyl methylcarbamate] the IC50 was 43.2 nM.
`CCc1cccc2cc(O)cc(-c3ncc4c(N5CC6CCC(C5)N6)nc(OC[C@]56CCCN5[C@@H](COC(=O)N(C)C)CC6)nc4c3F)c12` [Example 434, 7a-(((4-((1R,5S)-3,8-diazabicyclo[3.2.1]octan-3-yl)-7-(8-ethyl-3-hydroxynaphthalen-1-yl)-8-fluoropyrido[4,3-d]pyrimidin-2-yl)oxy)methyl)hexahydro-1H-pyrrolizin-3-yl)methyl dimethyl carbamate] gave an IC50 of 6.7 nM.
Work on `CNC(=O)O[C@@H]1CN2CCC[C@]2(COc2nc(N3C[C@H]4CC[C@@H](C3)N4)c3cnc(-c4cccc5cccc(Cl)c45)c(F)c3n2)C1` [Example 435, (2S,7aR)-7a-(((4-((1R,5S)-3,8-diazabicyclo[3.2.1]octan-3-yl)-7-(8-chloronaphthalen-1-yl)-8-fluoropyrido[4,3-d]pyrimidin-2-yl)oxy)methyl)hexahydro-1H-pyrrolizin-2-yl methylcarbamate] yielded an IC50 of 1820 nM.
`O=C(O[C@@H]1CN2CCC[C@]2(COc2nc(N3C[C@H]4CC[C@@H](C3)N4)c3cnc(-c4cccc5cccc(Cl)c45)c(F)c3n2)C1)N1CCOCC1` [Example 436, (2S,7aR)-7a-(((4-((1R,5S)-3,8-diazabicyclo[3.2.1]octan-3-yl)-7-(8-chloronaphthalen-1-yl)-8-fluoropyrido[4,3-d]pyrimidin-2-yl)oxy)methyl)hexahydro-1H-pyrrolizin-2-yl morpholine-4-carboxylate] showed an IC50 of 3990 nM.
For `Fc1c(-c2cccc3c2CC2CC32)ncc2c(N3CC4CCC(C3)N4)nc(OC[C@@]34CCCN3C[C@H](F)C4)nc12` (stereo partly drawn) [Example 438, 4-(3,8-diazabicyclo[3.2.1]octan-3-yl)-8-fluoro-2-(((2R,7aS)-2-fluorotetrahydro-1H-pyrrolizin-7a(5H)-yl)methoxy)-7-(1,1a,6,6a-tetrahydrocyclopropa[a]inden-5-yl)pyrido[4,3-d]pyrimidine], the IC50 was 1630 nM.
In the case of `C#Cc1c(F)ccc2cccc(-c3ncc4c(N5C[C@H]6CC[C@@H](C5)N6)nc(OC[C@]56CCCN5[C@@H](COC(=O)N(C)C)CC6)nc4c3F)c12` [Example 439, ((3R,7aR)-7a-(((4-((1R,5S)-3,8-diazabicyclo[3.2.1]octan-3-yl)-7-(8-ethynyl-7-fluoronaphthalen-1-yl)-8-fluoropyrido[4,3-d]pyrimidin-2-yl)oxy)methyl)hexahydro-1H-pyrrolizin-3-yl)methyl dimethylcarbamate], the IC50 is reported as 12.8 nM.
Work on `CCc1c(F)ccc2cc(O)cc(-c3ncc4c(N5C[C@H]6CC[C@@H](C5)N6)nc(OC[C@]56CCCN5[C@@H](COC(=O)N(C)C)CC6)nc4c3F)c12` [Example 441, ((3R,7aR)-7a-(((4-((1R,5S)-3,8-diazabicyclo[3.2.1]octan-3-yl)-7-(8-ethyl-7-fluoro-3-hydroxynaphthalen-1-yl)-8-fluoropyrido[4,3-d]pyrimidin-2-yl)oxy)methyl)hexahydro-1H-pyrrolizin-3-yl)methyl dimethylcarbamate] yielded an IC50 of 4.1 nM.

Reference: patent US11453683B1, “KRas G12D inhibitors” (Mirati Therapeutics, Inc., priority 2019, dated 2022)
